Source: US20020028836A1, “Potassium channel openers” (priority 2000, published 2002)
Read-outs that look alike come from different tables or passages of the source.

Tests used:
[1] = system: tissue strips obtained from Landrace pig bladders; experiment: Functional potassium channel opening activity in isolated bladder strips (field-stimulated twitch); settings: for Index: ED50 for P1075 divided by ED50 for the test agonist in a given tissue, averaged; for EC50: amount of agent necessary to cause 50% of the agent's maximal response, read-out: ED50 (the source's name); for Emax: maximal efficacy relative to P1075, field stimulation 0.05 Hz, 0.5 ms, 20 volts
Procedure, shortened: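 Mucosa-free female Landrace pig bladder strips in Krebs Ringer bicarbonate (pH 7.4, 37° C., 0.004 mM propranolol), 1.0 g preload, field-stimulated at 0.05 Hz, 0.5 ms, 20 V for twitch. Cumulative concentration-response curves; maximal efficacy as % of P1075, ED50 fitted, potency index = P1075 ED50/test ED50 per tissue, averaged.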

[2] = system: primary cultured guinea-pig urinary bladder (GPB) cells; experiment: Membrane hyperpolarization (MHP) assay, DiBAC(4)3 / FLIPR; type: cell-based; settings: for EC50: concentration that elicits 50% of the maximal response for the test sample
Method: Compounds were evaluated for potassium channel opening activity using primary cultured guinea-pig urinary bladder (GPB) cells.
For the preparation of urinary bladder smooth muscle cells, urinary bladders were removed from male guinea-pigs (Hartley, Charles River, Wilmington, Mass.) weighing 300-400 g and placed in ice-cold Ca^2+-free Krebs solution (Composition, mM: KCl, 2.7; KH2PO4, 1.5; NaCl, 75; Na2HPO4, 9.6; Na2HPO4.7H2O, 8; MgSO4, 2; glucose, 5; HEPES, 10; pH 7.4). Cells were isolated by enzymatic dissociation as previously described with minor modifications (Klockner, U. and Isenberg, G., Pflugers Arch. (1985), 405, 329-339), hereby incorporated by reference. The bladder was cut into small sections and incubated in 5 mL of the Kreb's solution containing I mg/mL collagenase (Sigma, St. Louis, Mo.) and 0.2 mg/mL pronase (Calbiochem, La Jolla, Calif.) with continuous stirring in a cell incubator for 30 minutes. The mixture was then centrifuged at 1300×g for 5 minutes, and the pellet resuspended in Dulbecco's PBS (GIBCO, Gaithersburg, Md.) and recentrifuged to remove residual enzyme. The cell pellet was resuspended in 5 mL growth media (composition: Dulbecco's modified Eagle's medium supplemented with 10% fetal bovine serum, 100 units/mL penicillin, 100 units/mL streptomycin and […] amphotericin B) and further dissociated by pipetting the suspension through a flame-polished Pasteur pipette and passing it through a polypropylene mesh membrane (Spectrum, Houston, Tex.). The cell density was adjusted to 100,000 cells/mL by resuspension in growth media. Cells were plated in clear-bottomed black 96-well plates (Packard) for membrane potential studies at a density of 20,000 cells/well and maintained in a cell incubator with 90% air: 10% CO2 until confluent. Cells were confirmed to be of smooth muscle type by cytoskeletal staining using a monoclonal mouse anti human-α-smooth muscle actin (Biomeda, Foster City, Calif.).
Functional activity at potassium channels was measured by evaluating changes in membrane potential using the bis-oxonol dye DiBAC(4) (Molecular Probes) in a 96-well cell-based kinetic assay system, Fluorescent Imaging Plate Reader (FLIPR) (K. S. Schroeder et al., J. Biomed. Screen., v. 1 pp. 75-81 (1996)), hereby incorporated by reference. DiBAC(4)3 is an anionic potentiometric probe which partitions between cells and extracellular solution in a membrane potential-dependent manner. With increasing membrane potential (for example, K^+ depolarization), the probe further partitions into the cell; this is measured as an increase in fluorescence due to dye interaction with intracellular lipids and proteins. Conversely, decreasing membrane potential (hyperpolarization by potassium channel openers) evokes a decrease in fluorescence.
Confluent guinea-pig urinary bladder cells cultured in black clear-bottomed 96-well plates were rinsed twice with […] assay buffer (composition, mM: HEPES, 20; NaCl, 120; KCl, 2; CaCl2, 2; MgCl2, 1; glucose, 5; pH 7.4 at 25° C.) containing 5 μM DiBAC(4)3 and incubated with […] of the buffer in a cell incubator for 30 minutes at 37° C. to ensure dye distribution across the membrane. After recording the baseline fluorescence for 5 minutes, the reference or test compounds, prepared at 10 times the concentration in the assay buffer, were added directly to the wells. Changes in fluorescence were monitored for an additional 25 minutes. Hyperpolarization responses were corrected for any background noise and were normalized to the response observed with 10 μM of the reference compound P1075 (assigned as 100%), a potent opener of smooth muscle KATP channels (Quast et al., Mol. Pharmacol., v. 43 pp. 474-481 (1993)), hereby incorporated by reference.
Routinely, five concentrations of P1075 or test compounds (log or half-log dilutions) were evaluated and the maximal steady-state hyperpolarization values (expressed as % relative to P1075) plotted as a function of concentration. […]

[3] = Cavia porcellus, maximal steady-state hyperpolarization, normalized to response with 10 μM P1075 (100%)

SMILES	EC50 ([1]; Sus scrofa)	EC50 ([2]; Cavia porcellus)	EC50 [1]	EC50 [2]	Index [1]	Emax ([1]; Sus scrofa)	Emax [2, 3]	Maximal Response (% P1075) ([2]; maximal steady-state hyperpolarization, normalized to response with 10 μM P1075 (100%))
Cc1ccc(C(=O)N[C@H](NC(=S)Nc2cccnc2)C(C)(C)C)cc1 [Example 23, N-((1R)-2,2-dimethyl-1-{[(3-pyridinylamino)carbothioyl]amino}propyl)-4-methylbenzamide]	16 µM	3.96 µM			0.009	100%	66%	
CC(C)(C)C(NC(=O)c1ccccc1)NC(=S)Nc1cccnc1 (centres unmarked) [Example 28, N-(2,2-dimethyl-1-{[(3-pyridinylamino)carbothioyl]amino}propyl)benzamide]	42 µM	0.5 µM			0.004	100%	77%	
O=C(NC(NC(=S)Nc1ccccc1F)C(F)(F)F)c1ccc(Cl)cc1 (centres unmarked) [Example 21, 4-chloro-N-(2,2,2-trifluoro-1-{[(2-fluoroanilino)carbothioyl]amino}ethyl)benzamide]	21 µM	0.09 µM			0.014	86%	96%	
Cc1ccc(C(=O)NC(NC(=O)Nc2cccnc2)C(Cl)(Cl)Cl)cc1 (centres unmarked) [Example 38, 4-methyl-N-(2,2,2-trichloro-1-{[(3-pyridinylamino)carbonyl]amino}ethyl)benzamide]	7 µM	0.1 µM			0.015	98%	100%	
O=C(Nc1cccnc1)NC(NC(=O)c1ccccc1)C(Cl)(Cl)Cl (centres unmarked) [Example 40, N-(2,2,2-trichloro-1-{[(3-pyridinylamino)carbonyl]amino}ethyl)benzamide]	15 µM	0.12 µM			0.007	100%	100%	
Cc1ccc(C(=O)NC(NC(=S)Nc2ccc(F)cc2F)C(F)(F)F)cc1 (centres unmarked) [Example 15, N-(1-{[(2,4-difluoroanilino)carbothioyl]amino}-2,2,2-trifluoroethyl)-4-methylbenzamide]	28 µM	0.55 µM			0.005	97%	70%	
CC(C)(C)C(NC(=O)c1ccc(Cl)cc1)NC(=S)Nc1cccnc1 (centres unmarked) [Example 27, 4-chloro-N-(2,2-dimethyl-1-{[(3-pyridinylamino)carbothioyl]amino}propyl)benzamide]	25 µM	0.1 µM			0.009	94%	80%	
Cc1ccc(C(=O)NC(NC(=S)Nc2cccnc2)C(F)(F)F)cc1 (centres unmarked) [Example 1, 4-methyl-N-(2,2,2-trifluoro-1-{[(3-pyridinylamino)carbothioyl]amino}ethyl)benzamide]	9 µM	0.07 µM			0.009	100%	116%	
Cc1ccc(C(=O)NC(NC(=S)Nc2cccnc2)c2ccccc2)cc1 (centres unmarked) [Example 34, 4-methyl-N-(phenyl{[(3-pyridinylamino)carbothioyl]amino}methyl)benzamide]	23 µM	0.5 µM			0.003	99%	80%	

More lines, main results first:

EC50 ([1]; Sus scrofa)	EC50 ([2]; Cavia porcellus)	EC50 [1]	EC50 [2]	SMILES	Index [1]	Emax ([1]; Sus scrofa)	Emax [2, 3]	Maximal Response (% P1075) ([2]; maximal steady-state hyperpolarization, normalized to response with 10 μM P1075 (100%))
1.1 µM	0.096 µM			O=C(NC(NC(=S)Nc1cccnc1)C(Cl)(Cl)Cl)c1ccc(I)cc1 (centres unmarked) [Example 148, 4-iodo-N-(2,2,2-trichloro-1-{[(3-pyridinylamino)carbothioyl]amino}ethyl)benzamide]	0.082	78%	61%	
8.4 µM	0.039 µM			C=CC(C)(C)CC(NC(=O)c1ccc(Cl)cc1)NC(=N[N+](=O)[O-])Nc1cccnc1 (centres unmarked) [Example 133, 4-chloro-N-(1-{[(nitroimino)(3-pyridinylamino)methyl]amino}-3,3-dimethyl-4-pentenyl)benzamide]	0.039	58%	106%	
		10 µM	0.22 µM	CC1=C(CC(NC(=O)c2ccc(Cl)cc2)NC(=NC#N)Nc2cccnc2)C(C)(C)CCC1 (single isomer, unassigned; (+)) [Example 88, (+) 4-chloro-N-[1-{[(cyanoimino)(3-pyridinylamino)methyl]amino}-2-(2,6,6-trimethyl-1-cyclohexen-1-yl)ethyl]benzamide]	0.074	36%		87 % P1075
17 µM	0.1 µM			Cc1ccccc1C(=O)NC(NC(=NC#N)Nc1cccnc1)C(Cl)(Cl)Cl (centres unmarked) [Example 50, 2-methyl-N-(2,2,2-trichloro-1-{[(cyanoimino)(3-pyridinylamino)methyl]amino}ethyl)benzamide]	0.007	90%	92%	
12 µM	0.63 µM			CC(C)(C)C(NC(=O)c1ccc(Cl)cc1F)NC(=NC#N)Nc1cccnc1 (centres unmarked) [Example 106, 4-chloro-N-(1-{[(cyanoimino)(3-pyridinylamino)methyl]amino}-2,2-dimethylpropyl)-2-fluorobenzamide]	0.010	69%	85%	
10 µM	0.85 µM			CC(C)(C)C(NC(=O)c1ccc(Cl)cc1)NC(=N[N+](=O)[O-])Nc1cccnc1 (centres unmarked) [Example 123, 4-chloro-N-(1-{[(nitroimino)(3-pyridinylamino)methyl]amino}-2,2-dimethylpropyl)benzamide]	0.028	63%	90%	
2.4 µM	0.05 µM			CC(C)(C)C(NC(=O)c1ccc(I)cc1)NC(=NC#N)Nc1cccnc1 (centres unmarked) [Example 103, N-(1-{[(cyanoimino)(3-pyridinylamino)methyl]amino}-2,2-dimethylpropyl)-4-iodobenzamide]	0.450	83%	103%	
2.4 µM	0.084 µM			O=C(CCc1ccccc1)NC(NC(=S)Nc1cccc([N+](=O)[O-])c1)C(Cl)(Cl)Cl (centres unmarked) [Example 149, 3-phenyl-N-(2,2,2-trichloro-1-{[(3-nitroanilino)carbothioyl]amino}ethyl)propanamide]	0.076	95%	129%	
2 µM	0.04 µM			Cc1ccc(C(=O)NC(NC(=NC#N)Nc2cccnc2)C(Cl)(Cl)Cl)cc1 (centres unmarked) [Example 44, 4-methyl-N-(2,2,2-trichloro-1-{[(cyanoimino)(3-pyridinylamino)methyl]amino}ethyl)benzamide]	0.040	95%	103%	
3 µM	0.04 µM			N#CN=C(Nc1cccnc1)NC(NC(=O)c1ccccc1)C(Cl)(Cl)Cl (centres unmarked) [Example 49, N-(2,2,2-trichloro-1-{[(cyanoimino)(3-pyridinylamino)methyl]amino}ethyl)benzamide]	0.031	100%	92%	
